The values below come from ChEMBL document CHEMBL1201862, “PubChem BioAssay data set” (2004).

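The compound was tested at five concentrations on cells cultured in 96-well plates, with a 48-hour exposure period. GI50 marks 50% less growth.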 The source made the active and inactive calls. Rule as the data show it: active = GI50 up to about 1.1 µM and inactive = higher.

Test systems include SF-295; OVCAR-8; SNB-19; OVCAR-3; KM12; HCT-116; M14; SK-MEL-5; RXF 393; LXFL 529; SW-620; RPMI-8226; UACC-257; NCI-H23; HCT-15; CAKI-1; BT-549; MDA-N; DU-145; NCI/ADR-RES.
Assay in all cases: NCI tumour cell line growth inhibition, 48 h

`C=CCn1c(=O)n(CC=C)c(=O)n(CC=C)c1=O`: the GI50 with SF-295, in the assay with OVCAR-8, with SNB-19, with OVCAR-3, with KM12 and in the assay with HCT-116 was > 100 µM (inactive) each time. For the same compound, the GI50 in the assay with M14, in the assay with SK-MEL-5, with RXF 393, with LXFL 529, in the assay on SW-620 and in the assay with RPMI-8226 was > 100 µM (inactive) each time. In addition, the GI50 in the assay with UACC-257 was > 100 µM (inactive); in the assay on NCI-H23, > 100 µM (inactive); with HCT-15, over 100 µM.
For the compound `COc1cc2c(cc1OC)C1Cc3ccc(OC)c(OC)c3C[N+]1([O-])CC2` (stereo unspecified), the GI50 in the assay on SF-295, with OVCAR-8, with CAKI-1, with SNB-19, in the assay on OVCAR-3 and in the assay with KM12 was > 100 µM (inactive) each time. The GI50 in the assay on HCT-116 is > 100 µM (inactive); in the assay with M14, > 100 µM (inactive); in the assay on SK-MEL-5, > 100 µM (inactive); with LXFL 529, > 100 µM (inactive); in the assay with SW-620, > 100 µM (inactive); in the assay with RPMI-8226 it was 74.5 µM (inactive). For the same compound, the GI50 in the assay with UACC-257 and in the assay with NCI-H23 was > 100 µM (inactive) each time.
Take `COc1ccc2c(c1)[n+]([O-])c(/C(C)=N/NC(=O)CC#N)c[n+]2[O-]`: the GI50 in the assay on SF-295 is > 100 µM (inactive); with OVCAR-8 it was > 100 µM (inactive); with CAKI-1, 35.2 µM (inactive); in the assay on SNB-19, > 100 µM (inactive); in the assay with OVCAR-3, > 100 µM (inactive); in the assay on KM12, > 100 µM (inactive). For the same compound, the GI50 was 83.9 µM (inactive) with HCT-116; > 100 µM (inactive) in the assay on M14; > 100 µM (inactive) in the assay on SK-MEL-5; > 100 µM (inactive) in the assay with RXF 393; > 100 µM (inactive) in the assay on LXFL 529; 11.1 µM (inactive) in the assay with SW-620. For the same compound, the GI50 is 54.7 µM (inactive) with RPMI-8226, > 100 µM (inactive) in the assay with UACC-257, > 100 µM (inactive) in the assay with NCI-H23 and over 100 µM with HCT-15.
Take `COC(=O)c1nn(C(=N)c2ccc(Cl)cc2)c2c1CCCCC2`: the GI50 with SF-295, in the assay on CAKI-1, in the assay on SNB-19, with KM12, with HCT-116 and with M14 was > 100 µM (inactive) throughout. Also, the GI50 in the assay with SK-MEL-5, with RXF 393, in the assay with LXFL 529, in the assay on SW-620, in the assay with RPMI-8226 and in the assay with UACC-257 was > 100 µM (inactive) in each case. Besides, the GI50 with NCI-H23 was > 100 µM (inactive); in the assay with HCT-15, over 100 µM.
For the compound `CCOP(=S)(OCC)Oc1ccc2c(c1)OC(=O)C1(Cl)C2(C)C2(Cl)C(=O)Oc3cc(OP(=S)(OCC)OCC)ccc3C12C` (stereo unspecified), the GI50 in the assay with SF-295 was 14.7 µM (inactive); with OVCAR-8, 16.3 µM (inactive); in the assay with CAKI-1 it was 19.8 µM (inactive); in the assay on SNB-19, 4.8 µM (inactive); with OVCAR-3, 14.6 µM (inactive); with KM12, 15.5 µM (inactive). Moreover, the GI50 in the assay on HCT-116 was 12.3 µM (inactive); with M14, 17.7 µM (inactive); in the assay on SK-MEL-5, 17 µM (inactive); in the assay with RXF 393, 11.8 µM (inactive); with LXFL 529 it was 8.67 µM (inactive); with SW-620 it was 16.7 µM (inactive). Further, the GI50 was 11.1 µM (inactive) in the assay with RPMI-8226, 17.7 µM (inactive) in the assay with UACC-257, > 10 µM (inactive) in the assay with NCI-H23 and 20.4 µM in the assay on HCT-15.
Turning to `O=C1/C(=C/c2ccccc2)CN(C(=O)CCN2CCCC2)C/C1=C\c1ccccc1`, the GI50 in the assay on SF-295 was 1.09 µM (active); in the assay on OVCAR-8, 1.53 µM (inactive); in the assay on BT-549, 1.56 µM (inactive); with CAKI-1, 3.98 µM (inactive); with SNB-19 it was 2.51 µM (inactive); with OVCAR-3, 2.08 µM (inactive). In addition, the GI50 is 0.607 µM (active) in the assay with KM12; 0.355 µM (active) with HCT-116; 0.426 µM (active) with MDA-N; 1.74 µM (inactive) with M14; 4.48 µM (inactive) with DU-145; 0.27 µM (active) in the assay with NCI/ADR-RES. For the same compound, the GI50 with SK-MEL-5 is 1.83 µM (inactive); in the assay with RXF 393 it was 2.33 µM (inactive); in the assay with LXFL 529, 1.72 µM (inactive); in the assay on SW-620, 0.23 µM (active); with RPMI-8226, 0.253 µM (active); with UACC-257, 2.45 µM (inactive). Besides, the GI50 in the assay on NCI-H23 is 1.8 µM (inactive); in the assay with HCT-15 it was 1.73 µM.
For `COC1=NCc2ccccc2-c2ccccc21`, the GI50 with SF-295, in the assay on OVCAR-8, in the assay with SNB-19, in the assay with OVCAR-3, in the assay with KM12 and in the assay with HCT-116 was > 100 µM (inactive) each time. Also, the GI50 in the assay with SK-MEL-5 was > 100 µM (inactive); in the assay with RXF 393, > 100 µM (inactive); with LXFL 529 it was > 10 µM (inactive); with UACC-257 it was > 100 µM (inactive); with NCI-H23, > 100 µM (inactive); in the assay with HCT-15, over 100 µM.
Turning to `COC(=O)C1=C(c2cc(OC)c(OC)c(OC)c2)OC(c2ccc(OC)c(OC)c2)C1` (stereo unspecified), the GI50 with SF-295 was 35.6 µM (inactive); in the assay on OVCAR-8, 47.9 µM (inactive); in the assay with CAKI-1, > 100 µM (inactive); with OVCAR-3 it was 38.6 µM (inactive); in the assay on KM12, 29.2 µM (inactive); with HCT-116, 43.8 µM (inactive). For the same compound, the GI50 with M14 is 61.1 µM (inactive); in the assay on SK-MEL-5 it was 29.7 µM (inactive); in the assay on RXF 393, 35.9 µM (inactive); in the assay with LXFL 529, 26.5 µM (inactive); in the assay with SW-620 it was 33.5 µM (inactive); in the assay on RPMI-8226 it was 75.2 µM (inactive). For the same compound, the GI50 with UACC-257 was 40.6 µM (inactive); in the assay on NCI-H23, 78.2 µM (inactive); with HCT-15, 43.5 µM.
For `CCC(=S)N(C)O`, the GI50 was 34.2 µM (inactive) with SF-295; 40.3 µM (inactive) in the assay with OVCAR-8; > 100 µM (inactive) in the assay on BT-549; 81.8 µM (inactive) in the assay on CAKI-1; 63.5 µM (inactive) in the assay with SNB-19; 3.08 µM (inactive) with OVCAR-3. Moreover, the GI50 in the assay with KM12 is 25 µM (inactive); with HCT-116 it was 2.39 µM (inactive); in the assay with MDA-N it was 35.9 µM (inactive); in the assay with M14 it was 17.8 µM (inactive); in the assay with DU-145 it was 27.6 µM (inactive); in the assay on NCI/ADR-RES it was 17.1 µM (inactive). The GI50 was 8.55 µM (inactive) in the assay with SK-MEL-5; 25.9 µM (inactive) in the assay on RXF 393; 0.499 µM (active) in the assay with LXFL 529; 4.09 µM (inactive) in the assay on SW-620; 0.828 µM (active) in the assay with RPMI-8226; 50.9 µM (inactive) in the assay on UACC-257. Further, the GI50 in the assay on NCI-H23 is 10.1 µM (inactive); in the assay with HCT-15, 17 µM.
Take `CN(C)C(=S)/N=c1\ss/c(=N\S(=O)(=O)c2ccccc2)n1N(C)C`: the GI50 in the assay on OVCAR-8 was > 100 µM (inactive); in the assay on CAKI-1 it was > 100 µM (inactive); with SNB-19, > 100 µM (inactive); in the assay on OVCAR-3 it was > 100 µM (inactive); in the assay with KM12 it was > 100 µM (inactive); in the assay with HCT-116, 75 µM (inactive). The GI50 in the assay with M14 was > 100 µM (inactive); in the assay on SK-MEL-5 it was > 100 µM (inactive); in the assay with RXF 393, 9.91 µM (inactive); in the assay on LXFL 529, > 100 µM (inactive); with SW-620 it was > 100 µM (inactive); in the assay on RPMI-8226 it was 62.7 µM (inactive). The figures for the GI50 in the assay on UACC-257 and in the assay on HCT-15 were > 100 µM (inactive) and over 100 µM, respectively.
Turning to `Oc1ccc2ccccc2c1/N=N/c1ccsc1`, the GI50 in the assay with SF-295 is > 100 µM (inactive); with OVCAR-8 it was > 100 µM (inactive); in the assay on CAKI-1 it was > 100 µM (inactive); with SNB-19, > 100 µM (inactive); in the assay on OVCAR-3 it was > 100 µM (inactive); in the assay on KM12 it was 24.9 µM (inactive). The GI50 is 42.7 µM (inactive) in the assay with HCT-116; > 100 µM (inactive) with M14; > 100 µM (inactive) with SK-MEL-5; 53.3 µM (inactive) in the assay with RXF 393; > 100 µM (inactive) with LXFL 529; > 100 µM (inactive) in the assay on SW-620. For the same compound, the GI50 in the assay with RPMI-8226 is > 100 µM (inactive); in the assay on UACC-257, > 100 µM (inactive); in the assay with NCI-H23, > 100 µM (inactive); with HCT-15 it was 76.7 µM.
For `O=C(n1c2ccccc2c2nnc(S)nc21)C(F)(F)F`, the GI50 in the assay with SF-295, in the assay with OVCAR-8, in the assay with CAKI-1, in the assay with SNB-19, with OVCAR-3 and in the assay with KM12 was > 100 µM (inactive) throughout. For the same compound, the GI50 in the assay on HCT-116 is > 100 µM (inactive); in the assay on M14, > 100 µM (inactive); with SK-MEL-5 it was > 100 µM (inactive); in the assay on RXF 393, 33.4 µM (inactive); in the assay on LXFL 529 it was > 100 µM (inactive); with SW-620, > 100 µM (inactive). The figures for the GI50 in the assay on NCI-H23 and in the assay with HCT-15 were > 100 µM (inactive) and over 100 µM, respectively.
Turning to `COc1cccc2c1C(=O)c1c(O)c3c(c(O)c1C2=O)CC(O)(C(O)CO)CC3OC1CC(N2CCOCC2)C(O)C(C)O1` (stereo unspecified), the GI50 was 0.00206 µM (active) with SF-295; 0.00182 µM (active) in the assay on OVCAR-8; 0.0294 µM (active) in the assay on BT-549; 0.00175 µM (active) in the assay with CAKI-1; 0.00404 µM (active) in the assay on SNB-19; 0.0023 µM (active) with OVCAR-3. Further, the GI50 was 0.00551 µM (active) with KM12; < 0.001 µM (active) in the assay with HCT-116; 0.0143 µM (active) in the assay with MDA-N; 0.00295 µM (active) in the assay with M14; 0.00703 µM (active) in the assay with DU-145; 0.0162 µM (active) with NCI/ADR-RES. In addition, the GI50 in the assay on SK-MEL-5 is 0.00223 µM (active); in the assay on RXF 393 it was 0.0155 µM (active); in the assay on LXFL 529, 0.0124 µM (active); with SW-620, 0.00144 µM (active); in the assay on RPMI-8226 it was 0.00378 µM (active); in the assay with UACC-257, 0.00338 µM (active). Also, the GI50 in the assay on NCI-H23 is 0.00464 µM (active); with HCT-15 it was 0.00353 µM.
